Assay results taken from publication PMC6511888, “Synthesis, Biological Evaluation, and Molecular Modeling Studies of New Thiadiazole Derivatives as Potent P2X7 Receptor Inhibitors” (Frontiers in Chemistry, 2019).

Legend:
Caco-2 cells = test: Caco-2 cell permeability; format: in vitro ADME; settings: compared to the controls and 9f and 11c
Protocol: Corning® Costar® Transwell plates (Sigma-Aldrich, St. Louis, MO, USA) were used for seeding Caco-2 cells at 3 × 10^5 cells/well bathed with DMEM supplemented with 10% FSB according to Faria and collaborator in 2018 (Faria et al., [2018]). This culture was maintained for up to 21 days in a humidified incubator at 37°C and 5% CO2. Thiadiazole analog, vinblastine (poor permeability control), and propranolol (high permeability control) stock solutions, all at a concentration of 100 mM, were prepared in Hanks' balanced salt solution (HBSS) containing 25 mM HEPES at pH 7.4 with 0.5% (v/v) DMSO. Transport buffer (0.3 ml) was added to each well to equilibrate the cells with the transport buffer. A 24-well enhanced recovery plate containing 1 ml of transport buffer (pH 7.4) was substituted for the feeder tray. The transport buffer in the apical wells was removed, and 0.3 ml of a solution containing thiadiazoles 9b, 9c, 9f, or 11c; vinblastine; or propranolol was added. Then, the cells were replaced for incubation for 60 min. Lucifer yellow concentrations in the donor and acceptor wells were measured in the last of this incubation. Lucifer yellow was measured using an M5 plate reader ([…]) at an excitation wavelength of 485 nm and an emission wavelength of 530 nm.

P2X2R = molecular target: T1, P2X2R (Rattus norvegicus, UniProt P49653); test: ATP-induced [Ca2+]i shifts in PC12 cells; format: cell-based
T1 construct: endogenous in cells; host or cells: PC12 cells
T1 sequence (P49653 1-472): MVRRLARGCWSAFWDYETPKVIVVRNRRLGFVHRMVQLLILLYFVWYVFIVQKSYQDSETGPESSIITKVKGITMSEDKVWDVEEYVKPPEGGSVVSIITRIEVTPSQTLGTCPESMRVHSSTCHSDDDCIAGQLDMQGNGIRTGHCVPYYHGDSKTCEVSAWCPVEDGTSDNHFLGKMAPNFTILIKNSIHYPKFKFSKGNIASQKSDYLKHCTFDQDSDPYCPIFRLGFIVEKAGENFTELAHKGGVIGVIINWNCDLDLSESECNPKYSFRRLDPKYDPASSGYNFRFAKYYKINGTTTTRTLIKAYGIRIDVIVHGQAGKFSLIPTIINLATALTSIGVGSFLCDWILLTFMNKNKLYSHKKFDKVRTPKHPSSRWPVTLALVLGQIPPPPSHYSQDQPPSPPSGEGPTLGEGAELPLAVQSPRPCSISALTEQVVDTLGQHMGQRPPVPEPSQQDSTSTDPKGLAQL
Protocol: (§1) Mouse peritoneal macrophages, PC12 cells, J774 cells, and HEPG2 cells were analyzed by fluorescence microscopy to measure the intracellular Ca^2+ concentrations ([Ca^2+]i). Cells were incubated with 2 μM Fura-2-AM (Molecular Probes) for 30 min, and the [Ca^2+]i mobilization was measured in the F340/F380 ratios with a FlexStation 3 multimode microplate reader (Molecular Devices). Cells were plated in translucent 96-well plates (BD Falcon) for 15 min and then washed and incubated in a saline solution with 150 NaCl, 5 KCl, 1 MgCl2, 1 CaCl2, and 10 HEPES (pH 7.4) for 30 min before measurements of [Ca^2+]i. The Ca^2+ influx was induced by stimulating cells with P2 receptor agonists. P2 receptor antagonists were added 10 min before P2 receptor agonist addition. […] Ionomycin was considered a positive control, and the other recordings were normalized in relation to the AUC.

P2X4R = molecular target: T2, P2X4R (Rattus norvegicus, UniProt P51577); test: ATP-induced [Ca2+]i shifts potentiated by ivermectin in NR8383 alveolar macrophage cell line; format: cell-based; settings: 10 μM; NR8383 cells
T2 construct: endogenous in cells; host or cells: NR8383 rat alveolar macrophage cell line
T2 sequence (P51577 1-388): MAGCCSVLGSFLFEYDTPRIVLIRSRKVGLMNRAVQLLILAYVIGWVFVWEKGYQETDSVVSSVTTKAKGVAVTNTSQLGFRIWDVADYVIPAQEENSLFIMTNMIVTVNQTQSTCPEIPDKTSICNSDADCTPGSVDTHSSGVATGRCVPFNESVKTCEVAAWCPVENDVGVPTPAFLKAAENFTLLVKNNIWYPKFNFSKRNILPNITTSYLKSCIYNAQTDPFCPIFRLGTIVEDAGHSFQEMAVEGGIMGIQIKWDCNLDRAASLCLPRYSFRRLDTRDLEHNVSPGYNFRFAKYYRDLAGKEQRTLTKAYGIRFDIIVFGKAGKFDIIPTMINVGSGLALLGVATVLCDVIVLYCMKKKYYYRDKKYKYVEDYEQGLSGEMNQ

P2Y1R = molecular target: T3, P2Y1R (Mus musculus, UniProt P49650); test: ADP-induced [Ca2+]i shifts in mouse peritoneal macrophages; format: cell-based; settings: concentration not given
T3 construct: endogenous in cells; host or cells: mouse peritoneal macrophages
T3 sequence (P49650 whole entry): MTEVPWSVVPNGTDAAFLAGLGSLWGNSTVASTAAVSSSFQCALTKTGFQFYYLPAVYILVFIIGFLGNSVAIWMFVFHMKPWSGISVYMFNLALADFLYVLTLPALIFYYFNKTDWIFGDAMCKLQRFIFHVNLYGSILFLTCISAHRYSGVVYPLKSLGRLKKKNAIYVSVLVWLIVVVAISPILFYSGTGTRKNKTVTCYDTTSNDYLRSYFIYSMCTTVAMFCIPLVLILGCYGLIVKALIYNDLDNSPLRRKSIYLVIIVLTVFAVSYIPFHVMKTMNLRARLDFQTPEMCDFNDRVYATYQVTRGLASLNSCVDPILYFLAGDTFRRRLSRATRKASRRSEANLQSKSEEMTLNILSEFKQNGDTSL
Protocol: as §1

P2Y2R = molecular target: T4, P2Y2R (Mus musculus, UniProt P35383); test: 2-S-UTP-activated [Ca2+]i shifts in mouse peritoneal macrophages; format: cell-based; settings: concentration not given
T4 construct: endogenous in cells; host or cells: mouse peritoneal macrophages
T4 sequence (P35383 whole entry): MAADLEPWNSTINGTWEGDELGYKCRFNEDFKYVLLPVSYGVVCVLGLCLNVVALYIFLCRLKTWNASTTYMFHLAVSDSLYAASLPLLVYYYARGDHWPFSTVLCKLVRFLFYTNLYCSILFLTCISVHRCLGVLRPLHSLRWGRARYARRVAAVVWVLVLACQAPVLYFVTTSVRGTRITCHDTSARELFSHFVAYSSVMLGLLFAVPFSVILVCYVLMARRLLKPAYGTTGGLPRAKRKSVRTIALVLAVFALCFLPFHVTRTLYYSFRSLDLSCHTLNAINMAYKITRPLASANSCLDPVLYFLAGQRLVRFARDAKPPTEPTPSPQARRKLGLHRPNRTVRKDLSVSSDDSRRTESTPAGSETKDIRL
Protocol: as §1

P2Y6R = molecular target: T5, P2Y6R (Mus musculus, UniProt Q9ERK9); test: UDPβS-activated [Ca2+]i shifts in mouse peritoneal macrophages; format: cell-based; settings: concentration not given
T5 construct: endogenous in cells; host or cells: mouse peritoneal macrophages
T5 sequence (Q9ERK9 whole entry): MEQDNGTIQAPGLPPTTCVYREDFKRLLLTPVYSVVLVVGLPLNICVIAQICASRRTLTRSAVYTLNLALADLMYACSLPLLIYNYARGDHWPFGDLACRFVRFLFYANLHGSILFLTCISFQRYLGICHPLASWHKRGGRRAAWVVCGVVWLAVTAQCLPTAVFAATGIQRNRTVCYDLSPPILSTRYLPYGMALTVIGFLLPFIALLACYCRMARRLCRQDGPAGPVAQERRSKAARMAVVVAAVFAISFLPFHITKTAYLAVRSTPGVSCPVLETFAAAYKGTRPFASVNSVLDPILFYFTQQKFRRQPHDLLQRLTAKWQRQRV
Protocol: as §1

P2Y11R = test: NAADP-induced [Ca2+]i shifts in mouse peritoneal macrophages; format: cell-based; settings: concentration not given
Protocol: as §1

P2Y12R = molecular target: T6, P2Y12R (Mus musculus, UniProt Q9CPV9); test: 2MeSADP-activated [Ca2+]i shifts in mouse peritoneal macrophages; format: cell-based; settings: concentration not given
T6 construct: endogenous in cells; host or cells: mouse peritoneal macrophages
T6 sequence (Q9CPV9 whole entry): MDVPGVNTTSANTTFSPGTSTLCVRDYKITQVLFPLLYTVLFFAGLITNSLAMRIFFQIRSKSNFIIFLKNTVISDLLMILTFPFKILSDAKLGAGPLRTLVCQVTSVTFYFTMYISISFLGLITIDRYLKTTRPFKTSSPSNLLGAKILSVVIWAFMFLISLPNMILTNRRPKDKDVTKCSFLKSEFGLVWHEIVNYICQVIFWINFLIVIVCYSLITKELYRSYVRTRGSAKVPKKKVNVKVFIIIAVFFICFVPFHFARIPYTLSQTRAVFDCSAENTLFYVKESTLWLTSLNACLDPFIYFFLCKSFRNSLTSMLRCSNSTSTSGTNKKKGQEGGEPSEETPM

P2Y13R = molecular target: T7, P2Y13R (Homo sapiens, UniProt Q9BPV8); test: ADPβS-induced [Ca2+]i shifts in HEP2G cells; format: cell-based; settings: concentration not given
T7 construct: endogenous in cells; host or cells: HEP2G (HEPG2) cells
T7 sequence (Q9BPV8 1-354): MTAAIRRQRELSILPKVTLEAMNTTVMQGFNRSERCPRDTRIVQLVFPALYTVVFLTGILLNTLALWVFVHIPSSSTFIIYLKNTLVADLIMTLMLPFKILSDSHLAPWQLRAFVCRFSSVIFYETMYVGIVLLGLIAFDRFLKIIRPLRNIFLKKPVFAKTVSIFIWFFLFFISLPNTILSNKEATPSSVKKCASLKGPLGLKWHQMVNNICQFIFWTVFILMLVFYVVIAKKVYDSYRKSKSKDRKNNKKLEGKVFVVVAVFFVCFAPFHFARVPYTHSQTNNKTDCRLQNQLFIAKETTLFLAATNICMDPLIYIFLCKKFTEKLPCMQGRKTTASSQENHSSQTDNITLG
Protocol: as §1

SMILES | Permeability in Caco-2 cells (in words) (Caco-2 cells) | Effect on ATP-induced [Ca2+]i shifts (P2X2R; 100 μM) | Effect on ATP-induced [Ca2+]i shifts potentiated by 1 μM ivermectin (P2X4R) | Effect on ADP-induced [Ca2+]i shifts (P2Y1R) | Effect on 2-S-UTP-activated [Ca2+]i shifts (P2Y2R) | Effect on UDPβS-activated [Ca2+]i shifts (P2Y6R) | Effect on NAADP-induced [Ca2+]i shifts (P2Y11R) | Effect on 2MeSADP-activated [Ca2+]i shifts (P2Y12R) | Effect on ADPβS-induced [Ca2+]i shifts (P2Y13R) | Effect on ATP-induced [Ca2+]i shifts (P2X2R; 10 μM)
N#Cc1cnn(-c2nnc(-c3ccccc3Cl)s2)c1N [Compound 9b] | moderate permeability | – | – | – | – | – | – | – | – | –
CCOC(=O)c1cnn(-c2nnc(-c3ccccc3Cl)s2)c1N [Compound 9f] | – | did not inhibit | did not inhibit | did not inhibit | did not have inhibitory effects | did not show inhibitory activity | did not inhibit | not inhibited | did not inhibit | –
COc1ccc(CC(=O)NC(NC(=NC#N)Nc2cccc3ncccc23)C(C)(C)C)cc1OC (stereo not drawn) [Compound A740003, N-(1-{[(cyanoimino)(5-quinolinylamino)methyl]amino}-2,2-dimethylpropyl)-2-(3,4-dimethoxyphenyl)acetamide] | – | – | did not inhibit | did not inhibit | did not have inhibitory effects | did not show inhibitory activity | did not inhibit | not inhibited | did not inhibit | did not inhibit
N#Cc1cnn(-c2nnc(-c3ccc(F)cc3)s2)c1N [Compound 9c] | moderate permeability | – | – | – | – | – | – | – | – | –
